Key:
T antigen [1] = molecular target: T1, T antigen (Simian virus 40, UniProt P03070); assay: ATPase activity of purified T antigen; format: biochemical, polyomavirus; conditions: for Fold change in ATPase activity of T antigen: compound 10 μM, purified T antigen, normalized to DMSO, mean of 3 experiments
human Hsp70 = human Hsp70 (Homo sapiens, UniProt P0DMV8); assay: Endogenous Hsp70 ATPase activity; format: biochemical
JC Virus = assay: JC virus replication in COS7 cells; format: cell-based; conditions: comparison with cidofovir
RMS13 and MCF7 cells = assay: Growth inhibition of the two cancer lines; format: cell-based; conditions: Homo sapiens, read-out: GI50 across the two cancer lines
T antigen [2] = molecular target: T1, T antigen; conditions: cited from earlier work
[3] = tested on: human foreskin fibroblasts; assay: Cytotoxicity in human foreskin fibroblasts; format: cell-based; conditions: in words
Hsp70 + Hdj2 = Hsp70 + Hdj2 (Homo sapiens, UniProt P0DMV8); assay: Hsp40; format: biochemical; conditions: carboxylic acid in place of tetrazole
Chain of Hsp70 + Hdj2 (P0DMV8 whole entry): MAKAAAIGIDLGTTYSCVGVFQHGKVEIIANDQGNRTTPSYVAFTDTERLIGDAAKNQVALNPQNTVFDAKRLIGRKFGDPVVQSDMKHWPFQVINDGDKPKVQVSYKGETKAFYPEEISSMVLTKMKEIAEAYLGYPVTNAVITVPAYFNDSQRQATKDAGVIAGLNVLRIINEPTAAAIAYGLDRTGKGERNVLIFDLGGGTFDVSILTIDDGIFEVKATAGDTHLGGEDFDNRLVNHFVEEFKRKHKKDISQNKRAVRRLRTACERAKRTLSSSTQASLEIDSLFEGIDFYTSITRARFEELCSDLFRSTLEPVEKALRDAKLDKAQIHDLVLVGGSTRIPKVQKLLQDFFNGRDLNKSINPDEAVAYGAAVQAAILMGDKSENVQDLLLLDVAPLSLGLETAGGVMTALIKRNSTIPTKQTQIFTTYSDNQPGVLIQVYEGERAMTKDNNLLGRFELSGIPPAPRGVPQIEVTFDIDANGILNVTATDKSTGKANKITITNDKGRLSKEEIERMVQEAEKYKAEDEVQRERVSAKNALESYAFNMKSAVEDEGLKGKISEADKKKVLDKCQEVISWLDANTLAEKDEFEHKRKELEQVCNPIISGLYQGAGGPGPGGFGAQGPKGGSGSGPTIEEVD

T1 sequence (P03070 whole entry): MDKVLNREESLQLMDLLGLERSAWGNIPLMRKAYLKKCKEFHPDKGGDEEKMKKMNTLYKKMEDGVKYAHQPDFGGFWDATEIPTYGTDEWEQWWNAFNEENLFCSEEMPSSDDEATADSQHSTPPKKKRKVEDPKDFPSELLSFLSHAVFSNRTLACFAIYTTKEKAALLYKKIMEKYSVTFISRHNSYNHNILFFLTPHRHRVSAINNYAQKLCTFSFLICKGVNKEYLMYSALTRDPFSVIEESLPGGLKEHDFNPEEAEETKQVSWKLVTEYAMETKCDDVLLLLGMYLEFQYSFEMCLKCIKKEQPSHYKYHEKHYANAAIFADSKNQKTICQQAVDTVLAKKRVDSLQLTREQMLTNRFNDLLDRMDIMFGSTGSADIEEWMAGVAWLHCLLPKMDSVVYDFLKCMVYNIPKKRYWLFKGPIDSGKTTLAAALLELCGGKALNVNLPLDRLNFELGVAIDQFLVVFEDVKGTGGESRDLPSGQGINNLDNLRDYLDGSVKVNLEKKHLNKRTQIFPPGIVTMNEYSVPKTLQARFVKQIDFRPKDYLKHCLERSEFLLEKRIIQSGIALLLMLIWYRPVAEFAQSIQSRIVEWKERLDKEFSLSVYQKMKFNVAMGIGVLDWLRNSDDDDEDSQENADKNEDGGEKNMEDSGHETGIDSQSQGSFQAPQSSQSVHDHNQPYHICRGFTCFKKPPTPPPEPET
Chain of human Hsp70 (P0DMV8 whole entry): as the sequence (P0DMV8 whole entry) above

| Structure (SMILES) | Fold change in ATPase activity of T antigen (T antigen [1]) [fold] | other results |
| --- | --- | --- |
| CC1=C(C(=O)OCc2ccccc2)C(c2ccc(-c3ccccc3)cc2)N(CCCCCC(=O)O)C(=S)N1 (centres unmarked) [AMT551-071] | −1.6 |  |
| CC1=C(C(=O)OCc2ccccc2)C(c2ccc(-c3ccccc3)cc2)NC(=O)N1CCCCCc1nnn[nH]1 (centres unmarked) [BQU015242] | −1.4 | Effect on endogenous Hsp70 ATPase activity, in words (human Hsp70): modestly inhibited |
| CC1=C(C(=O)OCc2ccccc2)C(c2ccc(-c3ccccc3)cc2)N(Cc2ccc(-c3nnn[nH]3)cc2)C(=S)N1 (centres unmarked) [AMT580-043] | −4.5 | Inhibition of polyomavirus replication in cell culture, in words (JC Virus): more potently than an existing drug, cidofovir |
| CC1=C(C(=O)OCc2ccccc2)C(c2ccc(-c3ccccc3C)cc2)NC(=S)N1Cc1ccc(-c2nnn[nH]2)cc1 (centres unmarked) [AMT551-093] | −7.7 |  |
| CC1=C(C(=O)OCc2ccccc2)C(c2ccc(-c3ccccc3)cc2)NC(=S)N1CCCCCc1nnn[nH]1 (centres unmarked) [AMT580-027] | −2.1 |  |
| CC1=C(C(=O)OCc2ccccc2)C(c2ccc(-c3ccccc3C)cc2)NC(=O)N1CCCCCc1nnn[nH]1 (centres unmarked) [LR340-006] | −2.1 |  |
| CC1=C(C(=O)OCc2ccccc2)C(c2ccc(-c3ccccc3)cc2)NC(=O)N1Cc1ccc(-c2nnn[nH]2)cc1 (centres unmarked) [ML282-56] | −2.0 |  |
| CCCCCCN(C(=O)CCCCCN1C(=O)NC(c2ccc(-c3ccccc3)cc2)C(C(=O)OCc2ccccc2)=C1C)C(C(=O)NCCCC)c1ccc(OCC(=O)OC)c(C(=O)OC)c1 (centres unmarked) [MAL3-101] |  | GI50 (RMS13 and MCF7 cells): 6 to 13 µM |
| CC1=C(C(=O)OCc2ccccc2)C(c2ccc(-c3ccccc3C)cc2)NC(=S)N1CCCCCc1nnn[nH]1 (centres unmarked) [AMT580-033] | −4.7 |  |
| CC1=C(C(=O)OCc2ccccc2)C(c2ccc(-c3ccccc3)cc2)NC(=S)N1Cc1ccc(-c2nnn[nH]2)cc1 (centres unmarked) [AMT551-078] | −5.5 |  |
| CC1=C(C(=O)OCc2ccccc2)C(c2ccc(-c3ccccc3C)cc2)N(Cc2ccc(-c3nnn[nH]3)cc2)C(=S)N1 (centres unmarked) [AMT551-058] | −7.5 |  |
| CC1=C(C(=O)OCc2ccccc2)C(c2ccc(-c3ccccc3C)cc2)NC(=O)N1Cc1ccc(-c2nnn[nH]2)cc1 (centres unmarked) [SMAL] |  | IC50 (T antigen [2]; read-out: IC50 T antigen ATPase activity): 5 µM; EC50 (T antigen [2]; read-out: reported EC50 (T antigen ATPase)): ~5 µM; Effect on endogenous Hsp70 ATPase activity, in words (human Hsp70): modestly inhibited; Effect on T antigen ATPase activity, in words (T antigen [1]; final concentration 10 μM): significantly reduced the ATPase activity of T antigen |
| Nc1ccn(C[C@@H](CO)OCP(=O)(O)O)c(=O)n1.O.O [Cidofovir] |  | Toxicity relative to the dihydropyrimidines [3]: significantly less toxic than the dihydropyrimidines |
| CC1=C(C(=O)OCc2ccccc2)C(c2ccc(-c3ccccc3)cc2)N(Cc2ccc(-c3nnn[nH]3)cc2)C(=O)N1 (centres unmarked) [AMT628-003] | −2.3 |  |
| CC1=C(C(=O)OCc2ccccc2)C(c2ccc(-c3ccccc3)cc2)NC(=O)N1CCCCCC(=O)O (centres unmarked) [MAL2-11B] | −1.5 | Effect on Hsp40-dependent activation of Hsp70, in words (Hsp70 + Hdj2): either lacked inhibitory activity or modesty stimulated |
| CC1=C(C(=O)OCc2ccccc2)C(c2ccc(-c3ccccc3)cc2)NC(=S)N1CCCCCC(=O)O (centres unmarked) [AMT551-090] | −1.5 | Effect on Hsp40-dependent activation of Hsp70, in words (Hsp70 + Hdj2): either lacked inhibitory activity or modesty stimulated |

— paper PMC5050167 (Bioorganic & medicinal chemistry letters, 2016)
